Where a name gives a salt, the structure may show the parent alone.
What was measured:
[1] = test system: Human platelet-rich plasma (collagen-induced blood platelet aggregation); test: Collagen-induced blood platelet aggregation (aggregometer method of BORN); format: cell-based; settings: 10 min; human citrated platelet-rich plasma; 37° C., 10 minutes incubation; collagen-fibrils; maximum aggregation velocity as test parameter
Experimental: Human platelet-rich plasma was obtained by centrifugation from citrated venous blood. The experiments were carried out with suspensions of the test substances in 0.9% sodium chloride. 0.18 ml of citrate plasma were treated with a 10 μl suspension of the test compounds and incubated at 37° C. for 10 minutes, whereupon the aggregation was initiated by the addition of 10 μl of a suspension of collagen-fibrils.

Plasma glucose = test: Antihyperglycemic activity: plasma glucose concentration after oral glucose load in fasted rats; format: in vivo; settings: percentages of the controls, rats fasted 24 hours, 0.3 mmol/kg p.o., glucose 1.6 g/kg orally 100 minutes later, plasma 20 minutes after glucose, averages
Experimental: Gum arabic (12 control animals) or 0.3 mmol/kg p.o. of test substance (6 experimental animals) is administered to rats (fasted for 24 hours) and 100 minutes later a suspension of 1.6 g of glucose in 10 ml of 5 percent gum arabic is administered orally per kg body weight. The animals are killed 20 minutes after the glucose administration. Plasma is obtained from the heparinized mixed blood. The glucose concentration in the plasma is determined according to the hexokinase method.

Structure (SMILES) | EC50 [1] | Plasma glucose concentration (%) (Plasma glucose) | Plasma glucose concentration (%) (Plasma glucose; listed as 2-Phenyl-4,5,7,8-tetrahydro-4,4,8,8-tetramethyl-1-H-thiepino-8 4,5-d]-imidazole , hydrochloride)
CC1(C)CSCC(C)(C)c2[nH]c(-c3cccs3)nc21 [4,5,7,8-Tetrahydro-4,4,8,8-tetramethyl-2-(2-thienyl)-1-H-thiepino[4,5-d]-imidazole hydrochloride] | 19.7 µM | – | –
CC1(C)CSCC(C)(C)c2[nH]c(-c3ccc4c(c3)OCO4)nc21 [2-(3,4-Methylenedioxyphenyl)-4,5,7,8-tetrahydro-4,4,8,8-tetramethyl-1-H-thiepino[4,5-d]imidazole hydrochloride] | 1.2 µM | – | –
CC1(C)CSCC(C)(C)c2[nH]c(-c3ccc(F)cc3)nc21 [2-(p-Fluorophenyl)-4,5,7,8-tetrahydro-4,4,8,8-tetramethyl-1-H-thiepino-[4,5-d]imidazole hydrochloride] | 4.7 µM | 77% | –
CC1(C)CSCC(C)(C)c2[nH]c(-c3ccccc3)nc21 [2-phenyl-4,5,7,8-tetrahydro-4,4,8,8-tetramethyl-1-H-thiepino[4,5-d]imidazole] | – | 74% | –
CC1(C)CSCC(C)(C)c2[nH]c(-c3ccccc3)nc21 [2-Phenyl-4,5,7,8-tetrahydro-4,4,8,8-tetramethyl-1-H-thiepino[4,5-d]-imidazole hydrochloride] | 0.8 µM | – | 67%
COc1ccc(-c2nc3c([nH]2)C(C)(C)CSCC3(C)C)cc1 [2-(p-Methoxyphenyl)-4,5,7,8-tetrahydro-4,4,8,8-tetramethyl-1-H-thiepino-[4,5-d]imidazole hydrochloride] | 4.2 µM | – | –
